Assay results taken from patent US20200375691A1, “PERACETIC ACID VAPOR STERILIZATION SYSTEM” (Medivators Inc., priority 2018, published 2020).

How the values were obtained:
[1] = test system: Geobacillus stearothermophilus; assay: Sterilization of inoculated flexible endoscopes with PAA vapor from a one liter glass bubbler; assay type: cell-based; details: 6-7 log inoculum, chamber at room temperature
Description: A one liter glass bubbler as the vapor system was used to test three different flexible endoscopes to determine the efficacy of the system against microorganisms as a function of size and architecture of endoscope.
The three endoscope types were chosen to meet the three primary conditions of flexible endoscopes: • Long endoscope: XSIF-100 • Complex channel system scope: CFQ-160L • Basic/small scope: BF-P40 and BF-P30
Each scope was inoculated on both the exterior and interior of the lumens with Geobacillus stearothermophilus suspended in serum or saline solution at a target concentration of microorganisms of 6-7 log for each run. The scope was then sealed inside a double Tyvek bag with a hookup adaptor. Each flexible endoscope was evaluated for a total of 22 inoculated surfaces to achieve a greater than 95% confidence level.
The test conditions for each scope are described below: • For CF-Q160L endoscope: • a. Bubbler flow rate: 4000 mL/min • b. Circulation Flow Rate: 12000 mL/min • c. Contact Time: 60 min
For XSIF-100 endoscope: • a. Bubbler flow rate: […] • b. Circulation Flow Rate: 11000 mL/min • c. Contact Time: 15 min and 30 min
For BF-P40 and BF-P30 endoscopes: • a. Bubbler flow rate: 4000 mL/min • b. Circulation Flow Rate: 11000 mL/min • c. Contact Time: 30 min
The chamber for all the runs was at room temperature.

[2] = test system: Geobacillus stearothermophilus; assay: Colonoscope sterilization in 60 liter stainless steel chamber; assay type: cell-based; details: colonoscope CFQ-160 L, bubbler 4 L/min, circulation approximately 12 L/min, 60 minutes, 6-7 log inoculum
Description: A 60 liter stainless steel chamber was used to determine the effect of chamber size on the efficacy of the bubbler system when the chamber size and material were changed. The flow rate used was 4 L/min for a bubbler and approximately 12 L/min for circulation and the sterilization time was for 60 minutes. Twenty-two inoculated surfaces were studied with the colonoscope (CFQ-160 L). Each scope was inoculated on both the exterior and interior of the lumens with Geobacillus stearothermophilus suspended in serum or saline solution at a target concentration of microorganisms of 6-7 log for each run.

[3] = Evacuation of sterilant after sterilization: PAA in chamber and residuals on scope; details: after 30 minute ventilation
Description: To evacuate the sterilant out after the sterilization process, the experiment utilized three additional parts to the system: • 1. Circulating fan inside the chamber lid to generate turbulence to promote the evacuation process. • 2. Air pump at the outlet vent to help remove the sterilant out of the system. • 3. Medical air inlet to dilute the concentration of PAA for faster evacuating process.
The process included a flow of medical air in at 15 L/min (flow through both chamber and lumen of scope) and a flow of air out of the chamber (generated by the air pump) and a circulation flow inside the chamber (generated by the fan). The equivalent of flow through the chamber allowed the pressure inside the chamber to be closer to atmospheric pressure to reduce scope damage and allow easier design of the chamber.

[4] = test system: Mesa brand biological indicator (BI); assay: System 220 bubbler flow through elevator wire channel, biological indicator kill; assay type: cell-based
Description: In this embodiment, vapor system 220 was substantially modified to allow PAA vapor to flow from the bubbler 231 into an endoscope's elevator wire channel 270. To generate flow, a duodenoscope was placed in a poly tray (no terminal packaging was used) and the elevator wire channel of the endoscope was connected to the flow path. The vacuum chamber 240 was evacuated to 20 torr (±5 torr) so as to create enough pressure differential to flow PAA vapor 232A without any additional mechanical assistance, such as a pump. The flow rate was estimated to be about 150 ml per minute. Potential system leaks were assessed by closing the On/Off valve of the bubbler, isolating the chamber in manual control mode, and holding for 5 minutes. Chamber leak rate was determined to be less than 0.5 torr per five minutes. Depending on the application and the size of the bubbler vessel, PAA flow rate was to be controlled via the needle valve. In this illustrated embodiment, needle valve 252 was in its maximum flow position during all experiments, indicating needle valve 252 was not needed. Flow of PAA vapor to the distal tip of the scope was assured by affixing a PAA chemical indicator (CI) 280. Additional CIs were placed throughout the chamber to monitor for the presence of residual PAA presence, but these were optional and not critical to the operation of system 220. […]

[5] = test system: biological indicators (BIs); assay: Heated 90 cm bubbler runs, biological indicators in beakers, Tyvek and process challenge devices; assay type: cell-based
Description: In this example embodiment of bubbler 430 and system 420, the Bubbler System was modified to accept a 50 mm outside diameter by 90 cm long glass tube (5 mm wall thickness) attached to a 417-liter REVOX system. During all experiments, 250 mL of REVOX PA liquid was measured by graduated cylinder and poured into the 90 cm Bubbler. The Bubbler System was connected to the 417-liter REVOX sterilization chamber referred to as an improved bubbler vessel configuration. Air was drawn into bubbler 430 using only the force of the vacuum within sterilization chamber. A simple on-off valve was used to control the flow of air through the bubbler, allowing for “blocks” to be created in a similar manner to a normal REVOX cycle. In several cases a flow meter and/or infrared vapor detector was used to monitor the output of the Bubbler. In all cases, unused functions of the modified Revox Sterilization chamber/system were turned off (e.g. Dehumidification Hold was always set to 0) or were disabled (e.g. scope flow valve power was physically unplugged).
(§1) An assortment of process challenge devices (PCDs) were procured as a rough gauge to see what modes of sterilization are possible with the current bubbler 430 setup. These devices included simple Tyvek bags containing BIs, a syringe based PCD which contained a BI, a HF2000 Hemofilter cut to allow a BI to be inserted into the fiber mesh, and an artificial bone matrix provided by the REVOX team. Additionally, an Olympus TJF160 duodenoscope was inoculated with 6-log of bacteria on the exterior surface and within the scope lumens and was exposed to a Bubbler cycle with no hookups. This scope was used to assess penetration of sterilant down fine lumens.
(§2) The difference between heated and non-heated bubbler systems is the resulting humidity present in the chamber during the sterilization cycles. The humidity level on Cycle 250, as an example, exceeded 100% relative humidity. Maximum humidity levels were recorded by visual observation. The importance of humidity was again shown in Cycle 251 where humidity levels never exceeded 60% while testing a rapid, multi block cycle. […] Cycle 252 was used to test the effect of a single block run with a longer period of hold. […] Cycle 253 tested the penetration of Bubbler created PAA vapor into the long lumens of an Olympus TJF-160 duodenoscope. The scope surface, elevator wire channel, air/water channel, and suction biopsy channel were each inoculated with 6-logs of Geobacillus stearothermophilus spores. No hookups were used to pass PAA vapor into the lumens.
Cycle 254 tested a single 15-minute contact time on BIs in the chamber and within a Tyvek pouch. With pump down and ventilation, the total run time was 22 minutes. […] Additionally, between 5 and 10 additional minutes could be cut out of the cycle to achieve the same results. This is based on the rate at which the chemical indicators bleach out within the chamber, which tends to happen less than 5 minutes after PAA exposure begins. Within this cycle as well, two different types of Cantel Medical PAA chemical indicators were used. No appreciable difference was observed between the two varieties of CIs. Cycles 255 and 256 provide insight into the utility of the large scale Bubbler technology. […] The results of the Hemofilter can be explained by the complexity of filter membrane and its massive surface area. More “blocks” or injections of PAA vapor are likely needed to saturate the filter membrane with PAA vapor. The bone matrix, however, is readily porous and should be easily sterilized under these conditions. […] It is hypothesized that the metal is causing a breakdown of the PAA vapor as it passes through the bone matrix.

[6] = test system: Geobacillus stearothermophilus spores; assay: Heated bubbler Cycle 253, inoculated Olympus TJF-160 duodenoscope without hookups; assay type: cell-based; details: Cycle 253: contact time 1200, 3 inj, 6-logs of spores, no hookups
Description: as §1
as §2, with “The scope surface, elevator wire channel, air/water channel, and suction biopsy channel were each inoculated with 6-logs of Geobacillus stearothermophilus spores. No hookups were used to pass PAA vapor into the lumens.” left out

[7] = limit that the residual is compared with; cited from earlier work
[8] = Cycle 254: contact time 900 (15-minute), 1 inj, inj 5 torr
[9] = Cycle 255: contact time 1200, 3 inj, inj 5 torr
[10] = Cycle 256: contact time 3600, 2 inj, inj 1 torr

SMILES: CC(=O)OO [PAA, peracetic acid]
- Result: survivors on 22 inoculated surfaces ([1]; Bronchoscope BF-P40 and BF-P30, bubbler 4000 mL/min, circulation 11000 mL/min, contact 30 min): All 22 inoculated surfaces have no
- Result: survivors on 22 inoculated surfaces ([1]; Colonoscope CFQ-160L, bubbler 4000 mL/min, circulation 12000 mL/min, contact 60 min): All 22 inoculated surfaces have no
- Result: survivors on 22 inoculated surfaces ([1]; Enteroscope XSIF-100, bubbler 4000 mL, circulation 11000 mL/min, contact 15 min and 30 min): All 22 inoculated surfaces have no
- survivors on 22 inoculated surfaces, scope and biological indicators [2]: no survivors
- residuals on the scope [3]: 30 mg of PAA
- BI Results ([4]; contact time 600 seconds (Manual 1, Manual 2), chamber 20 torr, BI in vessel along flow path): alive
- biological indicators ([4]; scope flow time 30 minutes or greater): dead
- BI Results: BIs in Beakers (negative = kill) ([5]; Cycle 250: contact time 1200, 3 inj, inj 5 torr, post inj 500 torr, humidity exceeded 100%): complete kill
- BI Results: BIs in Beakers ([5]; Cycle 251: contact time 60, 20 inj, inj 5 torr, humidity never exceeded 60%): No kill
- BI Results: BIs in Beakers ([5]; Cycle 252: contact time 1800, 1 inj, inj 5 torr, humidity exceeded 100%): Kill was achieved
- BI Results: BIs in Beakers [5, 8]: sterilized
- BI Results: BIs in Tyvek [5, 8]: sterilized
- BI Results: BIs in Syringe PCD [5, 9]: able to kill
- BI Results: Bone Marrow BI [5, 9]: not able to kill
- BI Results: Hemofilter PCD BI [5, 9]: not able to kill
- BI Results: Bone Marrow PCD [5, 10]: not able to kill
- BI Results: Hemofilter PCD [5, 10]: not able to kill
- BI Results: Syringe PCD [5, 10]: able to kill
- Scope Exterior [6]: full kill
- Scope Lumens [6]: 1 log reduction
- worst case residual toxicity [7]: 7050 mg of PAA per total device
